# Reference: ChEMBL document CHEMBL1275409, “Antimicrobial-resistant pathogens in intensive care units in Canada: results of the Canadian National Intensive Care Unit (CAN-ICU) study, 2005-2006” (2008)
# Key:
# Type in all cases: functional
# Staphylococcus aureus [1] = experiment: Antimicrobial activity against methicillin-resistant Staphylococcus aureus isolated from ICU patient respiratory tract assessed as resistant isolates by broth microdilution method
# Staphylococcus aureus [2] = experiment: Antimicrobial activity against methicillin-resistant Staphylococcus aureus isolated from ICU patient wound assessed as resistant isolates by broth microdilution method
# Staphylococcus aureus [3] = experiment: Antimicrobial activity against methicillin-resistant Staphylococcus aureus isolated from ICU patient urine assessed as resistant isolates by broth microdilution method
# Staphylococcus aureus [4] = experiment: Antimicrobial activity against methicillin-resistant Staphylococcus aureus isolated from ICU patient blood assessed as resistant isolates by broth microdilution method
# Staphylococcus aureus [5] = experiment: Antimicrobial activity against methicillin-resistant Staphylococcus aureus assessed as resistant isolates by broth microdilution method
# Staphylococcus aureus [6] = experiment: Antimicrobial activity against methicillin-susceptible Staphylococcus aureus isolated from ICU patient respiratory tract assessed as resistant isolates by broth microdilution method
# Staphylococcus aureus [7] = experiment: Antimicrobial activity against methicillin-susceptible Staphylococcus aureus isolated from ICU patient wound assessed as resistant isolates by broth microdilution method
# Staphylococcus aureus [8] = experiment: Antimicrobial activity against methicillin-susceptible Staphylococcus aureus isolated from ICU patient urine assessed as resistant isolates by broth microdilution method
# Staphylococcus aureus [9] = experiment: Antimicrobial activity against methicillin-susceptible Staphylococcus aureus isolated from ICU patient blood assessed as resistant isolates by broth microdilution method
# Staphylococcus aureus [10] = experiment: Antimicrobial activity against methicillin-susceptible Staphylococcus aureus assessed as resistant isolates by broth microdilution method
# Enterobacter cloacae [11] = experiment: Antimicrobial activity against carbapenem-resistant Enterobacter cloacae isolated from ICU patient respiratory tract assessed as resistant isolates by broth microdilution method
# Haemophilus influenzae [12] = experiment: Antimicrobial activity against Haemophilus influenzae assessed as resistant isolates by broth microdilution method
# Haemophilus influenzae [13] = experiment: Antimicrobial activity against Haemophilus influenzae isolated from ICU patient blood assessed as resistant isolates by broth microdilution method
# Haemophilus influenzae [14] = experiment: Antimicrobial activity against Haemophilus influenzae isolated from ICU patient wound assessed as resistant isolates by broth microdilution method
# Haemophilus influenzae [15] = experiment: Antimicrobial activity against Haemophilus influenzae isolated from ICU patient respiratory tract assessed as resistant isolates by broth microdilution method
# Enterobacter cloacae [16] = experiment: Antimicrobial activity against carbapenem-resistant Enterobacter cloacae isolated from ICU patient wound assessed as resistant isolates by broth microdilution method
# Enterobacter cloacae [17] = experiment: Antimicrobial activity against carbapenem-resistant Enterobacter cloacae isolated from ICU patient urine assessed as resistant isolates by broth microdilution method
# Enterobacter cloacae [18] = experiment: Antimicrobial activity against carbapenem-resistant Enterobacter cloacae isolated from ICU patient blood assessed as resistant isolates by broth microdilution method
# Enterobacter cloacae [19] = experiment: Antimicrobial activity against carbapenem-resistant Enterobacter cloacae assessed as resistant isolates by broth microdilution method
# Pseudomonas aeruginosa [20] = experiment: Antimicrobial activity against carbapenem-resistant Pseudomonas aeruginosa isolated from ICU patient respiratory tract assessed as resistant isolates by broth microdilution method
# Pseudomonas aeruginosa [21] = experiment: Antimicrobial activity against carbapenem-resistant Pseudomonas aeruginosa isolated from ICU patient wound assessed as resistant isolates by broth microdilution method
# Pseudomonas aeruginosa [22] = experiment: Antimicrobial activity against carbapenem-resistant Pseudomonas aeruginosa isolated from ICU patient urine assessed as resistant isolates by broth microdilution method
# Pseudomonas aeruginosa [23] = experiment: Antimicrobial activity against carbapenem-resistant Pseudomonas aeruginosa isolated from ICU patient blood assessed as resistant isolates by broth microdilution method
# Pseudomonas aeruginosa [24] = experiment: Antimicrobial activity against carbapenem-resistant Pseudomonas aeruginosa assessed as resistant isolates by broth microdilution method
# Klebsiella pneumoniae [25] = experiment: Antimicrobial activity against ESBL producing Klebsiella pneumoniae isolated from ICU patient respiratory tract assessed as resistant isolates by broth microdilution method
# Klebsiella pneumoniae [26] = experiment: Antimicrobial activity against ESBL producing Klebsiella pneumoniae isolated from ICU patient wound assessed as resistant isolates by broth microdilution method
# Klebsiella pneumoniae [27] = experiment: Antimicrobial activity against ESBL producing Klebsiella pneumoniae isolated from ICU patient urine assessed as resistant isolates by broth microdilution method
# Klebsiella pneumoniae [28] = experiment: Antimicrobial activity against ESBL producing Klebsiella pneumoniae isolated from ICU patient blood assessed as resistant isolates by broth microdilution method
# Klebsiella pneumoniae [29] = experiment: Antimicrobial activity against ESBL producing Klebsiella pneumoniae assessed as resistant isolates by broth microdilution method
# Escherichia coli [30] = experiment: Antimicrobial activity against CTX-M ESBL producing Escherichia coli isolated from ICU patient respiratory tract assessed as resistant isolates by broth microdilution method
# Escherichia coli [31] = experiment: Antimicrobial activity against CTX-M ESBL producing Escherichia coli isolated from ICU patient wound assessed as resistant isolates by broth microdilution method
# Escherichia coli [32] = experiment: Antimicrobial activity against CTX-M ESBL producing Escherichia coli isolated from ICU patient urine assessed as resistant isolates by broth microdilution method
# Escherichia coli [33] = experiment: Antimicrobial activity against CTX-M ESBL producing Escherichia coli isolated from ICU patient blood assessed as resistant isolates by broth microdilution method
# Escherichia coli [34] = experiment: Antimicrobial activity against CTX-M ESBL producing Escherichia coli assessed as resistant isolates by broth microdilution method
# Streptococcus pneumoniae [35] = experiment: Antimicrobial activity against penicillin-resistant Streptococcus pneumoniae isolated from ICU patient respiratory tract assessed as resistant isolates by broth microdilution method
# Streptococcus pneumoniae [36] = experiment: Antimicrobial activity against penicillin-resistant Streptococcus pneumoniae isolated from ICU patient wound assessed as resistant isolates by broth microdilution method
# Streptococcus pneumoniae [37] = experiment: Antimicrobial activity against penicillin-resistant Streptococcus pneumoniae isolated from ICU patient blood assessed as resistant isolates by broth microdilution method
# Streptococcus pneumoniae [38] = experiment: Antimicrobial activity against penicillin-resistant Streptococcus pneumoniae assessed as resistant isolates by broth microdilution method
# [39] = system: Staphylococcus epidermidis; experiment: Antimicrobial activity against methicillin-resistant Staphylococcus epidermidis isolated from ICU patient wound assessed as resistant isolates by broth microdilution method
# [40] = system: Staphylococcus epidermidis; experiment: Antimicrobial activity against methicillin-resistant Staphylococcus epidermidis isolated from ICU patient urine assessed as resistant isolates by broth microdilution method
# [41] = system: Staphylococcus epidermidis; experiment: Antimicrobial activity against methicillin-resistant Staphylococcus epidermidis isolated from ICU patient blood assessed as resistant isolates by broth microdilution method
# [42] = system: Staphylococcus epidermidis; experiment: Antimicrobial activity against methicillin-resistant Staphylococcus epidermidis assessed as resistant isolates by broth microdilution method
# [43] = system: Staphylococcus epidermidis; experiment: Antimicrobial activity against methicillin-susceptible Staphylococcus epidermidis isolated from ICU patient respiratory tract assessed as resistant isolates by broth microdilution method
# [44] = system: Staphylococcus epidermidis; experiment: Antimicrobial activity against methicillin-susceptible Staphylococcus epidermidis isolated from ICU patient wound assessed as resistant isolates by broth microdilution method
# [45] = system: Staphylococcus epidermidis; experiment: Antimicrobial activity against methicillin-susceptible Staphylococcus epidermidis isolated from ICU patient urine assessed as resistant isolates by broth microdilution method
# [46] = system: Staphylococcus epidermidis; experiment: Antimicrobial activity against methicillin-susceptible Staphylococcus epidermidis isolated from ICU patient blood assessed as resistant isolates by broth microdilution method
# [47] = system: Staphylococcus epidermidis; experiment: Antimicrobial activity against methicillin-susceptible Staphylococcus epidermidis assessed as resistant isolates by broth microdilution method
# Enterococcus sp. [48] = experiment: Antimicrobial activity against vancomycin-resistant Enterococcus sp. isolated from ICU patient respiratory tract assessed as resistant isolates by broth microdilution method
# Enterococcus sp. [49] = experiment: Antimicrobial activity against vancomycin-resistant Enterococcus sp. isolated from ICU patient wound assessed as resistant isolates by broth microdilution method
# Enterococcus sp. [50] = experiment: Antimicrobial activity against vancomycin-resistant Enterococcus sp. isolated from ICU patient urine assessed as resistant isolates by broth microdilution method
# Enterococcus sp. [51] = experiment: Antimicrobial activity against vancomycin-resistant Enterococcus sp. assessed as resistant isolates by broth microdilution method
# Enterococcus sp. [52] = experiment: Antimicrobial activity against vancomycin-resistant Enterococcus sp. isolated from ICU patient blood assessed as resistant isolates by broth microdilution method
compound,measurement,setting,value
CO/N=C(\C(=O)N[C@@H]1C(=O)N2C(C(=O)O)=C(CSc3nc(=O)c(O)nn3C)CS[C@H]12)c1csc(N)n1 [CEFTRIAXONE],Activity,Staphylococcus aureus [1],100%
same,Activity,Staphylococcus aureus [2],100%
same,Activity,Staphylococcus aureus [3],100%
same,Activity,Staphylococcus aureus [4],100%
same,Activity,Staphylococcus aureus [5],100%
same,Activity,Staphylococcus aureus [6],0%
same,Activity,Staphylococcus aureus [7],0%
same,Activity,Staphylococcus aureus [8],0%
same,Activity,Staphylococcus aureus [9],0%
same,Activity,Staphylococcus aureus [10],0%
same,Activity,Enterobacter cloacae [11],10.2%
same,Activity,Haemophilus influenzae [12],0.3%
same,Activity,Haemophilus influenzae [13],0%
same,Activity,Haemophilus influenzae [14],0%
same,Activity,Haemophilus influenzae [15],0.3%
same,Activity,Enterobacter cloacae [16],5.9%
same,Activity,Enterobacter cloacae [17],25%
same,Activity,Enterobacter cloacae [18],29.2%
same,Activity,Enterobacter cloacae [19],13.9%
same,Activity,Pseudomonas aeruginosa [20],27%
same,Activity,Pseudomonas aeruginosa [21],30.2%
same,Activity,Pseudomonas aeruginosa [22],33.3%
same,Activity,Pseudomonas aeruginosa [23],51.5%
same,Activity,Pseudomonas aeruginosa [24],30%
same,Activity,Klebsiella pneumoniae [25],0%
same,Activity,Klebsiella pneumoniae [26],3.9%
same,Activity,Klebsiella pneumoniae [27],0%
same,Activity,Klebsiella pneumoniae [28],0%
same,Activity,Klebsiella pneumoniae [29],0.4%
same,Activity,Escherichia coli [30],2.5%
same,Activity,Escherichia coli [31],1.7%
same,Activity,Escherichia coli [32],4.2%
same,Activity,Escherichia coli [33],5.5%
same,Activity,Escherichia coli [34],3.7%
same,Activity,Streptococcus pneumoniae [35],0%
same,Activity,Streptococcus pneumoniae [36],0%
same,Activity,Streptococcus pneumoniae [37],0%
same,Activity,Streptococcus pneumoniae [38],0%
same,Activity,[39],100%
same,Activity,[40],100%
same,Activity,[41],100%
same,Activity,[42],100%
same,Activity,[43],0%
same,Activity,[44],25%
same,Activity,[45],0%
same,Activity,[46],1.8%
same,Activity,[47],8.1%
C[C@H]1COc2c(N3CCN(C)CC3)c(F)cc3c(=O)c(C(=O)O)cn1c23.C[C@H]1COc2c(N3CCN(C)CC3)c(F)cc3c(=O)c(C(=O)O)cn1c23.O [LEVOFLOXACIN],Activity,Staphylococcus aureus [1],91.5%
same,Activity,Staphylococcus aureus [2],92.6%
same,Activity,Staphylococcus aureus [3],100%
same,Activity,Staphylococcus aureus [4],91.8%
same,Activity,Staphylococcus aureus [5],91.8%
same,Activity,Staphylococcus aureus [6],6.9%
same,Activity,Staphylococcus aureus [7],7.1%
same,Activity,Staphylococcus aureus [8],20%
same,Activity,Staphylococcus aureus [9],6.9%
same,Activity,Staphylococcus aureus [10],7.3%
same,Activity,Enterobacter cloacae [11],0%
same,Activity,Haemophilus influenzae [12],0%
same,Activity,Haemophilus influenzae [13],0%
same,Activity,Haemophilus influenzae [14],0%
same,Activity,Haemophilus influenzae [15],0%
same,Activity,Enterobacter cloacae [16],5.9%
same,Activity,Enterobacter cloacae [17],6.3%
same,Activity,Enterobacter cloacae [18],4.2%
same,Activity,Enterobacter cloacae [19],1.8%
same,Activity,Pseudomonas aeruginosa [20],3.3%
same,Activity,Pseudomonas aeruginosa [21],11.5%
same,Activity,Pseudomonas aeruginosa [22],0%
same,Activity,Pseudomonas aeruginosa [23],3.9%
same,Activity,Pseudomonas aeruginosa [24],3.6%
same,Activity,Klebsiella pneumoniae [25],21.5%
same,Activity,Klebsiella pneumoniae [27],40%
same,Activity,Klebsiella pneumoniae [28],24.2%
same,Activity,Klebsiella pneumoniae [29],25.5%
same,Activity,Escherichia coli [30],21.3%
same,Activity,Escherichia coli [31],24.1%
same,Activity,Escherichia coli [32],19.8%
same,Activity,Escherichia coli [33],23.3%
same,Activity,Escherichia coli [34],21.1%
same,Activity,Enterococcus sp. [48],46.7%
same,Activity,Enterococcus sp. [49],45.8%
same,Activity,Enterococcus sp. [50],52%
same,Activity,Enterococcus sp. [51],51%
same,Activity,Enterococcus sp. [52],56.8%
same,Activity,Streptococcus pneumoniae [35],2.1%
same,Activity,Streptococcus pneumoniae [36],0%
same,Activity,Streptococcus pneumoniae [37],0%
same,Activity,Streptococcus pneumoniae [38],1.7%
same,Activity,[39],100%
same,Activity,[40],100%
same,Activity,[41],100%
same,Activity,[42],100%
same,Activity,[43],100%
same,Activity,[44],66.7%
same,Activity,[45],80%
same,Activity,[46],42.9%
same,Activity,[47],52.3%
C[C@@H](O)[C@H]1C(=O)N2C(C(=O)O)=C(S[C@@H]3CN[C@H](C(=O)N(C)C)C3)[C@H](C)[C@H]12 [MEROPENEM],Activity,Staphylococcus aureus [1],100%
same,Activity,Staphylococcus aureus [2],100%
same,Activity,Staphylococcus aureus [3],100%
same,Activity,Staphylococcus aureus [4],100%
same,Activity,Staphylococcus aureus [5],100%
same,Activity,Staphylococcus aureus [6],0%
same,Activity,Staphylococcus aureus [7],0%
same,Activity,Staphylococcus aureus [8],0%
same,Activity,Staphylococcus aureus [9],0%
same,Activity,Staphylococcus aureus [10],0%
same,Activity,Enterobacter cloacae [11],0%
same,Activity,Haemophilus influenzae [12],0%
same,Activity,Haemophilus influenzae [13],0%
same,Activity,Haemophilus influenzae [14],0%
same,Activity,Haemophilus influenzae [15],0%
same,Activity,Enterobacter cloacae [16],0%
same,Activity,Enterobacter cloacae [17],0%
same,Activity,Enterobacter cloacae [18],0%
same,Activity,Enterobacter cloacae [19],0%
same,Activity,Pseudomonas aeruginosa [20],0%
same,Activity,Pseudomonas aeruginosa [21],0%
same,Activity,Pseudomonas aeruginosa [22],0%
same,Activity,Pseudomonas aeruginosa [23],0%
same,Activity,Pseudomonas aeruginosa [24],0%
same,Activity,Klebsiella pneumoniae [25],12.5%
same,Activity,Klebsiella pneumoniae [26],18.9%
same,Activity,Klebsiella pneumoniae [27],17.8%
same,Activity,Klebsiella pneumoniae [28],9.1%
same,Activity,Klebsiella pneumoniae [29],13.6%
same,Activity,Escherichia coli [30],0%
same,Activity,Escherichia coli [31],0%
same,Activity,Escherichia coli [32],0%
same,Activity,Escherichia coli [33],0%
same,Activity,Escherichia coli [34],0%
same,Activity,Streptococcus pneumoniae [35],0.5%
same,Activity,Streptococcus pneumoniae [36],0%
same,Activity,Streptococcus pneumoniae [37],0%
same,Activity,Streptococcus pneumoniae [38],0.4%
same,Activity,[39],100%
same,Activity,[40],100%
same,Activity,[41],100%
same,Activity,[42],100%
same,Activity,[43],0%
same,Activity,[44],29.2%
same,Activity,[45],0%
same,Activity,[46],1.8%
same,Activity,[47],9.3%
